A word on the IC50: it is the concentration that gives 50% inhibition. Low readings indicate greater potency, high ones weaker potency.

Values joined by “and” are separate entries in the source; they are usually repeats but may differ in a detail not shown here. Equal entries are not always repeated.

Experimental findings from patent publication US8476302B2, “α-ketoamide derivatives useful endothelial lipase inhibitors” (Janssen Pharmaceutica N.V., priority 2010, dated 2013) are described below.

Assay [1] has as its target T1, human endothelial lipase (EL) (Homo sapiens, UniProt Q9Y5X9).
T1 construct: host or cells: cells expressing human endothelial lipase
T1 sequence (Q9Y5X9 21-500): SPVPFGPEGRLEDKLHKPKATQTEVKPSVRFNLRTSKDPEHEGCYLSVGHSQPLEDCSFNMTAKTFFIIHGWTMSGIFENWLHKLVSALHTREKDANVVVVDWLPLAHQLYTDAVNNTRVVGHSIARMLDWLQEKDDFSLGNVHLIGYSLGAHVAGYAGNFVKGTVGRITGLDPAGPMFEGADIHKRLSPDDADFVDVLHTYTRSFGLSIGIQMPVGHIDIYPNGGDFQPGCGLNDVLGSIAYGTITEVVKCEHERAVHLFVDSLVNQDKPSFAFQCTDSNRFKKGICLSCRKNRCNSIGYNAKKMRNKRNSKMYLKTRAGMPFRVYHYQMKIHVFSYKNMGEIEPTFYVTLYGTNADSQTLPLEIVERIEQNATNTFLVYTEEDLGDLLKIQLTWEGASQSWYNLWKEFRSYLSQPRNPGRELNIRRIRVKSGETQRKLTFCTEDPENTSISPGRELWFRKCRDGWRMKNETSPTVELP
As to the kind of experiment: Endothelial Lipase Assay, cell surface lipase activity (human). As to conditions: cells expressing human EL, PLA1 substrate 10 μM, fluorescence reaction rate; several values in a cell are repeat determinations. The format is cell-based. The procedure, abridged:
(§1)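 Cells expressing human or mouse EL, plated 2000 cells/well in serum-free medium for 18-24 h at 37° C, then given PLA1 substrate (10 μM final) in HBSS/25 mM HEPES pH 7.2. Fluorescence (ex 490/em 515 nm) read kinetically for 30 min at 37° C; IC50 from slopes of linear regression over 480-1500 s.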

In another assay the target is T2, Mouse EL (Mus musculus, UniProt Q9WVG5).
T2 construct: host or cells: not described for mouse EL
T2 sequence (Q9WVG5 21-500): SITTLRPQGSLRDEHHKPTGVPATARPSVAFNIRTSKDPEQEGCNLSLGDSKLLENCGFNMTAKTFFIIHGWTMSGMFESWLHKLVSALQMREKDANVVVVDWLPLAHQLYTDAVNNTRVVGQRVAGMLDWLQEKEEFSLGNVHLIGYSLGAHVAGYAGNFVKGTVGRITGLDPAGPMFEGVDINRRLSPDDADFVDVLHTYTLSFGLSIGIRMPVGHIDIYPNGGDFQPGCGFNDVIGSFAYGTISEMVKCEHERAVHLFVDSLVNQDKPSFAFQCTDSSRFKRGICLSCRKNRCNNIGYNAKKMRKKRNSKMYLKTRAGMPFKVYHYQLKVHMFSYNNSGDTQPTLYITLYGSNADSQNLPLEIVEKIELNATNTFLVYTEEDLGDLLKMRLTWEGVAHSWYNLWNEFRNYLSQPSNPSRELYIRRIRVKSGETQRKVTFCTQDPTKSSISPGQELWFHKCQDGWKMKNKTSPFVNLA
As to the kind of experiment: Endothelial Lipase Assay, cell surface lipase activity (mouse). It is filed as cell-based. As to conditions: PLA1 substrate 10 μM, fluorescence reaction rate, several values in a cell are repeat determinations. The procedure, abridged: as §1

For `O=C(CCCCCOc1cc(F)ccc1F)C(=O)NCc1nnc(-c2ccc(Oc3ccccc3)cc2)o1` [Compound 98], the IC50 was 1730 nM in assay [1] and 774 nM against Mouse EL.

For the compound `O=C(CCCCCCc1ccc(F)nc1)C(=O)NCc1nnc(-c2ccc(OCc3ccncc3)cc2)s1` [Compound 159], the IC50 was found to be 240 nM in assay [1] and 174 nM against Mouse EL.

For the compound `N#Cc1cccc(COc2ccc(-c3nnc(CNC(=O)C(=O)CCCCCCc4ccccc4)o3)cc2)c1` [Compound 117], the IC50 in assay [1] is 78 nM; at Mouse EL it was 50 nM.

Regarding `O=C(CCCCCCc1ccccc1)C(=O)NCc1nnc(-c2ccncc2)o1` [Compound 178], the IC50 in assay [1] was 11600 nM; on Mouse EL, 7320 nM.

Take `O=C(CCCCCOc1cccc(F)c1)C(=O)NCc1nnc(-c2ccc(Oc3ccc(Cl)cc3)cc2)o1` [Compound 57]: the IC50 in assay [1] worked out at 3780 nM; against Mouse EL, 1100 nM.

In the case of `O=C(CCCCCCc1ccccc1)C(=O)NCc1nnc(-c2ccc(OCc3ccncc3F)cc2)s1` [Compound 161], the IC50 was 93 nM in assay [1] and 37 nM against Mouse EL.

In the case of `COc1cccc(OCCCCCC(=O)C(=O)NCc2nnc(-c3cccc(Oc4ccccc4)c3)o2)c1` [Compound 64], the IC50 amounted to 10900 nM in assay [1] and 9980 nM on Mouse EL.

Regarding `Cc1ccc(-c2nnc(CNC(=O)C(=O)CCCCCc3ccc(F)cc3)o2)cc1` [Compound 39], the IC50 in assay [1] stood at 643 nM; against Mouse EL, 772 nM.

For the compound `O=C(CCCCCCc1ccccc1)C(=O)NCc1nnc(-c2ccc(Oc3ccccc3)cc2)o1` [Compound 179], the results for the IC50 (in assay [1]; against Mouse EL) were 247 nM and 135 nM, respectively.

`O=C(CCCCCOc1cccc(F)c1)C(=O)NCc1nnc(-c2cccc(Oc3ccccc3)c2)o1` [Compound 56]: the IC50 was 3250 nM in assay [1] and 2290 nM against Mouse EL.

On to `O=C(CCCCCCc1ccc(C(F)(F)F)nc1)C(=O)NCc1nnc(-c2ccc(Oc3ccccc3)cc2)o1` [Compound 136], for which the results for the IC50 (in assay [1]; against Mouse EL) were 595 nM and 406 nM, respectively.

As to `O=C(CCCCCCc1cncnc1)C(=O)NCc1nnc(-c2ccc(Oc3ccccc3)cc2)o1` [Compound 120], the IC50 was 1510 nM in assay [1] and 973 nM on Mouse EL.

Take `CN(Cc1ccccn1)c1ccc(-c2nnc(CNC(=O)C(=O)CCCCCCc3ccccc3)o2)cc1` [Compound 111]: the IC50 was found to be 236 nM in assay [1] and 156 nM on Mouse EL.

Consider `O=C(CCCCCCc1ccccc1)C(=O)NCc1nnc(-c2ccc(OCc3ccncc3)cc2)s1` [Compound 140, 2-oxo-8-phenyl-N-((5-(4-(pyridin-4-ylmethoxy)phenyl)-1,3,4-thiadiazol-2-yl)methyl)octanamide], for which the IC50 in assay [1] is 32 nM; against Mouse EL, 29 nM.

As for `O=C(CCCCCOc1cccc(Cl)c1)C(=O)NCc1nnc(-c2ccc(OCc3ccccc3)cc2)o1` [Compound 96], the IC50 in assay [1] is 1300 nM; at Mouse EL it was 666 nM.

For `COc1cccc(OCCCCCC(=O)C(=O)NCc2nnc(-c3ccc(Oc4ccccc4)cc3)o2)c1` [Compound 65], the figures for the half-inhibitory concentration (IC50) (in assay [1]; against Mouse EL) were 872 nM and 793 nM, respectively.

For the compound `O=C(CCCCCCc1ccccc1)C(=O)NCc1nnc(-c2cccc(C(F)(F)F)c2)o1` [Compound 21], the IC50 in assay [1] is 684 nM; on Mouse EL, 654 nM.

`O=C(CCCCC=Cc1ccccc1)C(=O)NCc1nnc(-c2ccc(Oc3ccccc3)cc2)o1` [Compound 143]: the values for the IC50 (in assay [1]; on Mouse EL) were 7690 nM and 11100 nM, respectively.

Consider `COc1cccc(CCCCCCC(=O)C(=O)NCc2nnc(-c3ccc4ccccc4c3)o2)c1` [Compound 31], for which the IC50 worked out at 141 nM in assay [1] and 120 nM on Mouse EL.

As to `O=C(CCCCCCc1ccccc1)C(=O)NCc1nnc(-c2ccc(OCc3cc(F)cc(F)c3)cc2)o1` [Compound 90], the IC50 was 548 nM and 188 nM in assay [1]; 80 nM and 159 nM against Mouse EL.

Turning to `O=C(CCCCCCc1ccccc1)C(=O)NCc1nnc(-c2ccc(NCc3cccnc3)cc2)o1` [Compound 124], the values for the 50% inhibitory concentration (IC50) (in assay [1]; against Mouse EL) were 3610 nM and 2930 nM, respectively.

In the case of `O=C(CCCCCCc1ccccc1)C(=O)NCc1nnc(-c2ccc(OCc3cccc(Cl)c3)cc2)o1` [Compound 76], the concentration for half-maximal inhibition (IC50) is 3070 nM in assay [1] and 1950 nM against Mouse EL.

On to `CC(C)(C)OC(=O)c1cccc(COc2ccc(-c3nnc(CNC(=O)C(=O)CCCCCCc4ccccc4)o3)cc2)c1` [Compound 125], for which the figures for the IC50 (in assay [1]; against Mouse EL) were 2580 nM and 993 nM, respectively.

In the case of `O=C(CCCCCCc1ccc(F)nc1)C(=O)NCc1nnc(-c2ccc(Oc3ccccc3)cc2)o1` [Compound 127], the IC50 in assay [1] amounted to 308 nM; on Mouse EL it was 281 nM.

Regarding `CN(C)CCNC(=O)c1ccc(-c2nnc(CNC(=O)C(=O)CCCCCCc3ccccc3)o2)cc1` [Compound 149], the IC50 is 4250 nM in assay [1] and 3400 nM against Mouse EL.

Take `O=C(CCCCCCc1ccccc1)C(=O)NCc1nnc(-c2ccc3ccccc3c2)o1` [Compound 27]: the IC50 in assay [1] is 293 nM and 129 nM; against Mouse EL, 225 nM and 184 nM.

On to `O=C(CCCCCCc1ccccc1)C(=O)NCc1nnc(-c2ccc(OCc3ccccn3)cc2)o1` [Compound 88], for which the values for the IC50 (in assay [1]; against Mouse EL) were 178 nM and 196 nM, respectively.

As to `O=C(CCCCC#Cc1ccccc1)C(=O)NCc1nnc(-c2ccccc2)o1` [Compound 43], the IC50 in assay [1] amounted to 2410 nM; at Mouse EL, 2650 nM.

For `O=C(CCCCCCc1ccccc1)C(=O)NCc1nnc(-c2ccc(OCc3ccccc3)cc2)o1` [Compound 68], the IC50 in assay [1] was 142 nM; on Mouse EL, 124 nM.

On to `O=C(CCCCCCc1cccnc1F)C(=O)NCc1nnc(-c2ccc(Oc3ccccc3)cc2)o1` [Compound 119], for which the figures for the IC50 (in assay [1]; at Mouse EL) were 979 nM and 904 nM, respectively.

In the case of `O=C(CCCCCOc1cccc(Cl)c1)C(=O)NCc1nnc(-c2ccc(Oc3ccccc3)cc2)s1` [Compound 134], the IC50 in assay [1] was determined as 604 nM; at Mouse EL it was 243 nM.

Consider `O=C(CCCCCCc1ccccc1)C(=O)NCc1nnc(-c2ccc(Oc3ccccc3)cc2)s1` [Compound 130], for which the concentration for half-maximal inhibition (IC50) in assay [1] was determined as 111 nM; against Mouse EL, 80 nM.

For the compound `O=C(CCCCCCc1ccccc1)C(=O)NCc1nnc(-c2ccc(OCc3ccncn3)cc2)o1` [Compound 107], the results for the half-inhibitory concentration (IC50) (in assay [1]; on Mouse EL) were 345 nM and 216 nM, respectively.

`Cc1ncsc1CCCCCCC(=O)C(=O)NCc1nnc(-c2ccc(OCc3cccc(F)c3)cc2)s1` [Compound 154, N-((5-(4-((3-fluorobenzyl)oxy)phenyl)-1,3,4-thiadiazol-2-yl)methyl)-8-(4-methylthiazol-5-yl)-2-oxooctanamide]: the IC50 came to 36 nM in assay [1] and 47 nM against Mouse EL.

As to `O=C(CCCCCCc1ccccc1)C(=O)NCc1nnc(-c2ccc(NCc3ccc(F)c(F)c3)cc2)o1` [Compound 118], the IC50 in assay [1] came to 675 nM; on Mouse EL, 476 nM.

As for `O=C(CCCCCCc1ccc(F)cc1)C(=O)NCc1nnc(-c2ccc3ccccc3c2)o1` [Compound 30], the results for the IC50 (in assay [1]; against Mouse EL) were 523 nM and 205 nM, respectively.

On to `N#Cc1cccc(COc2ccc(-c3nnc(CNC(=O)C(=O)CCCCCCc4ccccc4)s3)cc2)n1` [Compound 163], for which the results for the IC50 (in assay [1]; against Mouse EL) were 974 nM and 236 nM, respectively.

Consider `O=C(CCCCCCc1ccccc1)C(=O)NCc1nnc(-c2ccc(OCc3ccnc(Cl)c3)cc2)s1` [Compound 173], for which the IC50 was determined as 37 nM in assay [1] and 17 nM against Mouse EL.

As to `O=C(CCCCCCc1ccccc1)C(=O)NCc1nnc(-c2ccc(OCc3ccccc3F)cc2)s1` [Compound 145], the IC50 in assay [1] was 312 nM; against Mouse EL it was 168 nM.

As to `O=C(CCCCCOc1cc(F)cc(F)c1)C(=O)NCc1nnc(-c2ccc(Oc3ccccc3)cc2)o1` [Compound 95], the results for the IC50 (in assay [1]; on Mouse EL) were 1060 nM and 560 nM, respectively.

On to `CN(c1ccc(Br)cc1)c1ccc(-c2nnc(CNC(=O)C(=O)CCCCCCc3ccccc3)o2)cc1` [Compound 75], for which the figures for the IC50 (in assay [1]; on Mouse EL) were 11600 nM and 11200 nM, respectively.
